According to the supplement of paper PMC10307832:

Assays:
Assay in all cases: relative viability (nuclei count vs DMSO), 5 days (fraction); higher = more cells survive
Axitinib + Trametinib = compound: CNC(=O)c1ccccc1Sc1ccc2c(/C=C/c3ccccn3)n[nH]c2c1 [Axitinib] + CC(=O)Nc1cccc(-n2c(=O)n(C3CC3)c(=O)c3c(Nc4ccc(I)cc4F)n(C)c(=O)c(C)c32)c1 [Trametinib] (partner 0.02 µM)
Method in brief: (§1)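 Lung cancer cell lines in 1536-well plates got either a single drug or a fixed anchor-drug dose together with five library-drug doses (not always all listed) in √10 steps, by pin tool, on the day after seeding. Nuclei were counted after 5 days, and relative viability is the treated-to-vehicle ratio of nuclei counts. Values are medians of duplicate plates.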

Axitinib + Palbociclib = compound: CNC(=O)c1ccccc1Sc1ccc2c(/C=C/c3ccccn3)n[nH]c2c1 [Axitinib] + CC(=O)c1c(C)c2cnc(Nc3ccc(N4CCNCC4)cn3)nc2n(C2CCCC2)c1=O [Palbociclib] (partner 0.5 µM)
Method in brief: as §1

Axitinib + Alpelisib = compound: CNC(=O)c1ccccc1Sc1ccc2c(/C=C/c3ccccn3)n[nH]c2c1 [Axitinib] + Cc1nc(NC(=O)N2CCC[C@H]2C(N)=O)sc1-c1ccnc(C(C)(C)C(F)(F)F)c1 [Alpelisib] (partner 2 µM)
Method in brief: as §1

Axitinib + Dasatinib = compound: CNC(=O)c1ccccc1Sc1ccc2c(/C=C/c3ccccn3)n[nH]c2c1 [Axitinib] + Cc1nc(Nc2ncc(C(=O)Nc3c(C)cccc3Cl)s2)cc(N2CCN(CCO)CC2)n1 [Dasatinib] (partner 0.075 µM)
Method in brief: as §1

NCI-H650 was tested, and the relative viability (Axitinib + Trametinib; first compound 0.005 µM) was 1.04, the relative viability (Axitinib + Trametinib; first compound 0.01581 µM) was 1 and the relative viability (Axitinib + Trametinib; first compound 0.05 µM) was 0.893. It also gave a relative viability (Axitinib + Trametinib; first compound 0.1581 µM) of 0.869, a relative viability (Axitinib + Trametinib; first compound 0.5 µM) of 1.06 and a relative viability (Axitinib + Palbociclib; first compound 0.005 µM) of 0.327. It also gave a relative viability (Axitinib + Palbociclib; first compound 0.01581 µM) of 0.342, a relative viability (Axitinib + Palbociclib; first compound 0.05 µM) of 0.312 and a relative viability (Axitinib + Palbociclib; first compound 0.1581 µM) of 0.321. It also gave a relative viability (Axitinib + Palbociclib; first compound 0.5 µM) of 0.325, a relative viability (Axitinib + Alpelisib; first compound 0.005 µM) of 1.19 and a relative viability (Axitinib + Alpelisib; first compound 0.01581 µM) of 1.13. The relative viability (Axitinib + Alpelisib; first compound 0.05 µM) was 0.868, the relative viability (Axitinib + Alpelisib; first compound 0.1581 µM) was 1.02 and the relative viability (Axitinib + Alpelisib; first compound 0.5 µM) was 1.24. The relative viability (Axitinib + Dasatinib; first compound 0.005 µM) was 0.496, the relative viability (Axitinib + Dasatinib; first compound 0.01581 µM) was 0.455 and the relative viability (Axitinib + Dasatinib; first compound 0.05 µM) was 0.47. The relative viability (Axitinib + Dasatinib; first compound 0.1581 µM) was 0.436 and the relative viability (Axitinib + Dasatinib; first compound 0.5 µM) was 0.396.
